Reference: patent US8822468B2 (Novartis AG, priority 2008, dated 2014)

molecular target: T1, cMET receptor tyrosine kinase (GST-cMET (969-1390)) (Homo sapiens, UniProt P08581); experiment: EPK cMET profiling assay (LanthaScreen TR-FRET antibody based kinase phosphorylation assay); format: biochemical; conditions: purified recombinant GST-cMET (969-1390), 2 μM ATP, 50 nM Fluorescein-PolyEAY, 60 minutes at room temperature; read-out: c-Met IC50
T1 construct: made in house
Procedure, shortened: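 GST-cMET cytoplasmic domain (969-1390), 0.3 nM, phosphorylated 50 nM fluorescein-PolyEAY with 2 µM ATP, Mg2+/Mn2+, 0.6% DMSO, 60 min at room temperature. Stopped with EDTA; Tb-PY20 antibody TR-FRET single end-point read. Final compound concentrations 10 to 0.003 µM, 8 points.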

T1 sequence (P08581 969-1390): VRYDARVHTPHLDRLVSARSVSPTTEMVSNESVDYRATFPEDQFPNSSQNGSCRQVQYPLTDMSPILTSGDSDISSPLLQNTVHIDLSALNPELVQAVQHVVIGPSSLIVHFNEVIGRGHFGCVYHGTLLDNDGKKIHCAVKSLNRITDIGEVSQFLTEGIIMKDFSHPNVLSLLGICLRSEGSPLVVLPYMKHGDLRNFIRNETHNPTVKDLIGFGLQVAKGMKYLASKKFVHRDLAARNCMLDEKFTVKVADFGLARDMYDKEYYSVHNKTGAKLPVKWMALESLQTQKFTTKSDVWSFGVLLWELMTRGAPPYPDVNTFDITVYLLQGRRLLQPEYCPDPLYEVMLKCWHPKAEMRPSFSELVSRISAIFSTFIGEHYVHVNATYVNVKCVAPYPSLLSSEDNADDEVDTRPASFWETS

`c1cnc2ccc(Cc3cnc4ccc(-c5cncnc5)nn34)cc2c1` [Example 54, 6-(6-Pyrimidin-5-yl-imidazo[1,2-b]pyridazin-3-ylmethyl)-quinoline] and `c1cnc2ccc(Cc3cnc4ccc(-c5ccsc5)nn34)cc2c1` [Example 65, 6-(6-Thiophen-3-yl-imidazo[1,2-b]pyridazin-3-ylmethyl)-quinoline] are within 1.5-fold of each other in IC50: 120 nM for the first, 160 nM for the second.

Compared with `CC(=O)c1cccc(-c2ccc3ncc(Cc4ccc5ncccc5c4)n3n2)c1` [Example 55, 1-[3-(3-Quinolin-6-ylmethyl-imidazo[1,2-b]pyridazin-6-yl)-phenyl]-ethanone], `NC(=O)c1cccc(-c2ccc3ncc(Cc4ccc5ncccc5c4)n3n2)c1` [Example 57, 3-(3-Quinolin-6-ylmethyl-imidazo[1,2-b]pyridazin-6-yl)-benzamide] is 2-fold higher in IC50: 31 nM for the first, 63 nM for the second. The first is the more potent here.

First: COc1ncc(-c2ccc3ncc(Cc4ccc5ncccc5c4)n3n2)cn1 [Example 56, 6-[6-(2-Methoxy-pyrimidin-5-yl)-imidazo[1,2-b]pyridazin-3-ylmethyl]-quinoline]
Second: COc1ccc(-c2ccc3ncc(Cc4ccc5ncccc5c4)n3n2)cn1 [Example 62, 6-[6-(6-Methoxy-pyridin-3-yl)-imidazo[1,2-b]pyridazin-3-ylmethyl]-quinoline]
The IC50 of the first is 6.4-fold higher: 250 nM for the first, 39 nM for the second. The second is the more potent here.

Compared with `CNC(=O)c1cccc(-c2ccc3ncc(Cc4ccc5ncccc5c4)n3n2)c1` [Example 58, N-Methyl-3-(3-quinolin-6-ylmethyl-imidazo[1,2-b]pyridazin-6-yl)-benzamide], `CN(C)C(=O)c1cccc(-c2ccc3ncc(Cc4ccc5ncccc5c4)n3n2)c1` [Example 59, N,N-Dimethyl-3-(3-quinolin-6-6-ylmethyl-imidazo[1,2-b]pyridazin-6-yl)-benzamide] is 2.2-fold higher in IC50: 250 nM for the first, 560 nM for the second. The first is the more potent here.

First: CCOC(=O)c1cccc(-c2ccc3ncc(Cc4ccc5ncccc5c4)n3n2)c1 [Example 60, 3-(3-Quinolin-6-ylmethyl-imidazo[1,2-b]pyridazin-6-yl)-benzoic acid ethyl ester]
Second: CN(C)CCNC(=O)c1cccc(-c2ccc3ncc(Cc4ccc5ncccc5c4)n3n2)c1 [Example 66, N-(2-Dimethylamino-ethyl)-3-(3-quinolin-6-ylmethyl-imidazo[1,2-b]pyridazin-6-yl)-benzamide]
The IC50 of the first is 5.7-fold higher: 340 nM for the first, 60 nM for the second. The second is the more potent here.

Going from `c1cnc2ccc(Cc3cnc4ccc(-c5ccc6c(c5)CCO6)nn34)cc2c1` [Example 63, 6-[6-(2,3-Dihydro-benzofuran-5-yl)-imidazo[1,2-b]pyridazin-3-ylmethyl]-quinoline] to `Fc1ccc(-c2ccc3ncc(Cc4ccc5ncccc5c4)n3n2)cc1Cl` [Example 68, 6-[6-(3-Chloro-4-fluoro-phenyl)-imidazo[1,2-b]pyridazin-3-ylmethyl]-quinoline], the IC50 rises from 190 nM to 480 nM (2.5-fold).

Compared with `OCCCc1ccc(-c2ccc3ncc(Cc4ccc5ncccc5c4)n3n2)cc1` [Example 64, 3-[4-(3-Quinolin-6-ylmethyl-imidazo[1,2-b]pyridazin-6-yl)-phenyl]-propan-1-ol], `Oc1ccc(-c2ccc3ncc(Cc4ccc5ncccc5c4)n3n2)cn1` [Example 73, 5-(3-Quinolin-6-ylmethyl-imidazo[1,2-b]pyridazin-6-yl)-pyridin-2-ol] is 1.6-fold lower in IC50: 79 nM for the first, 48 nM for the second.

Going from `N#Cc1cc(-c2ccc3ncc(Cc4ccc5ncccc5c4)n3n2)ccc1F` [Example 67, 2-Fluoro-5-(3-quinolin-6-ylmethyl-imidazo[1,2-b]pyridazin-6-yl)-benzonitrile] to `CNC(=O)c1ccc(-c2ccc3ncc(Cc4ccc5ncccc5c4)n3n2)cc1F` [Example 70, 2-Fluoro-N-methyl-4-(3-quinolin-6-ylmethyl-imidazo[1,2-b]pyridazin-6-yl)-benzamide], the IC50 falls from 160 nM to 62 nM (2.6-fold).

Compared with `c1cnc2ccc(Cc3cnc4ccc(-c5ccn[nH]5)nn34)cc2c1` [Example 69, 6-[6-(2H-Pyrazol-3-yl)-imidazo[1,2-b]pyridazin-3-ylmethyl]-quinoline], `CN(C)c1ccc2ncc(Cc3ccc4ncccc4c3)n2n1` [Example 106, Dimethyl-(3-quinolin-6-ylmethyl-imidazo[1,2-b]pyridazin-6-yl)-amine] is 11-fold lower in IC50: 820 nM for the first, 74 nM for the second.

`CNC(=O)c1ccc(-c2ccc3ncc(Cc4ccc5ncccc5c4)n3n2)cc1Cl` [Example 71, 2-Chloro-N-methyl-4-(3-quinolin-6-ylmethyl-imidazo[1,2-b]pyridazin-6-yl)-benzamide] and `CC(C)Nc1ccc2ncc(Cc3ccc4ncccc4c3)n2n1` [Example 91, Isopropyl-(3-quinolin-6-ylmethyl-imidazo[1,2-b]pyridazin-6-yl)-amine] are within 1.5-fold of each other in IC50: 24 nM for the first, 29 nM for the second.

Compared with `Clc1ccc2ncc(Cc3ccc4nccn4c3)n2n1` [Example 74, 6-chloro-3-imidazo[1,2-a]pyridin-6-ylmethyl-imidazo[1,2-b]pyridazine], `OCCNc1ccc2ncc(Cc3ccc4nccn4c3)n2n1` [Example 75, 2-(3-Imidazo[1,2-a]pyridin-6-ylmethyl-imidazo[1,2-b]pyridazin-6-ylamino)-ethanol] is 1.5-fold higher in IC50: 200 nM for the first, 300 nM for the second.

Compared with `CN(C)[C@@H]1CCN(c2ccc3ncc(Cc4ccc5nccn5c4)n3n2)C1` [Example 76, [(R)-1-(3-Imidazo[1,2-a]pyridin-6-ylmethyl-imidazo[1,2-b]pyridazin-6-yl)-pyrrolidin-3-yl]-dimethyl-amine], `CN(C)[C@@H]1CCN(c2ccc3ncc(Cc4ccc5ncccc5c4)n3n2)C1` [Example 88, Dimethyl-[(R)-1-(3-quinolin-6-ylmethyl-imidazo[1,2-b]pyridazin-6-yl)-pyrrolidin-3-yl]-amine] is 25-fold lower in IC50: 300 nM for the first, 12 nM for the second.

Compared with `CCC(C)Nc1ccc2ncc(Cc3ccc4ncccc4c3)n2n1` (centres unmarked) [Example 78, sec-Butyl-(3-quinolin-6-ylmethyl-imidazo[1,2-b]pyridazin-6-yl)-amine], `CCC(CC)Nc1ccc2ncc(Cc3ccc4ncccc4c3)n2n1` [Example 90, (1-Ethyl-propyl)-(3-quinolin-6-ylmethyl-imidazo[1,2-b]pyridazin-6-yl)-amine] is 8.2-fold higher in IC50: 9 nM for the first, 74 nM for the second.

`CC(C)CNc1ccc2ncc(Cc3ccc4ncccc4c3)n2n1` [Example 79, Isobutyl-(3-quinolin-6-ylmethyl-imidazo[1,2-b]pyridazin-6-yl)-amine] and `OCCNc1ccc2ncc(Cc3ccc4ncccc4c3)n2n1` [Example 92, 2-(3-Quinolin-6-ylmethyl-imidazo[1,2-b]pyridazin-6-ylamino)-ethanol] are within 1.5-fold of each other in IC50: 44 nM for the first, 32 nM for the second.

First: c1cnc2ccc(Cc3cnc4ccc(NCC5CCCO5)nn34)cc2c1 (centres unmarked) [Example 80, (3-Quinolin-6-ylmethyl-imidazo[1,2-b]pyridazin-6-yl)-(tetrahydro-furan-2-ylmethyl)-amine]
Second: c1cnc2ccc(Cc3cnc4ccc(NC5CCCC5)nn34)cc2c1 [Example 81, Cyclopentyl-(3-quinolin-6-ylmethyl-imidazo[1,2-b]pyridazin-6-yl)-amine]
The IC50 of the first is 2-fold lower: 38 nM for the first, 76 nM for the second. The first is the more potent here.

Compared with `c1ccc(CNc2ccc3ncc(Cc4ccc5ncccc5c4)n3n2)cc1` [Example 82, Benzyl-(3-quinolin-6-ylmethyl-imidazo[1,2-b]pyridazin-6-yl)-amine], `CC(Nc1ccc2ncc(Cc3ccc4ncccc4c3)n2n1)c1ccccc1` (centres unmarked) [Example 103, (1-Phenyl-ethyl)-(3-quinolin-6-ylmethyl-imidazo[1,2-b]pyridazin-6-yl)-amine] is 2.5-fold higher in IC50: 220 nM for the first, 550 nM for the second. The first is the more potent here.

`CN1CCC(Nc2ccc3ncc(Cc4ccc5ncccc5c4)n3n2)CC1` [Example 83, (1-Methyl-piperidin-4-yl)-(3-quinolin-6-ylmethyl-imidazo[1,2-b]pyridazin-6-yl)-amine] and `O=S1(=O)CCC(Nc2ccc3ncc(Cc4ccc5ncccc5c4)n3n2)C1` (centres unmarked) [Example 99, 1,1-Dioxo-tetrahydro-1lambda*6*-thiophen-3-yl)-(3-quinolin-6-ylmethyl-imidazo[1,2-b]pyridazin-6-yl)-amine] are within 1.5-fold of each other in IC50: 115 nM for the first, 120 nM for the second.

Compared with `c1cnc2ccc(Cc3cnc4ccc(N5CCOCC5)nn34)cc2c1` [Example 84, 6-(6-Morpholin-4-yl-imidazo[1,2-b]pyridazin-3-ylmethyl)-quinoline], `c1cnc2ccc(Cc3cnc4ccc(N5CCCC5)nn34)cc2c1` [Example 85, 6-(6-Pyrrolidin-1-yl-imidazo[1,2-b]pyridazin-3-ylmethyl)-quinoline] is 1.9-fold higher in IC50: 49 nM for the first, 95 nM for the second.

First: CN(C)C1CCN(c2ccc3ncc(Cc4ccc5ncccc5c4)n3n2)CC1 [Example 86, Dimethyl-[1-(3-quinolin-6-ylmethyl-imidazo[1,2-b]pyridazin-6-yl)-piperidin-4-yl]-amine]
Second: O=C1CN(c2ccc3ncc(Cc4ccc5ncccc5c4)n3n2)CCN1 [Example 102, 4-(3-Quinolin-6-ylmethyl-imidazo[1,2-b]pyridazin-6-yl)-piperazin-2-one]
The IC50 of the first is 4.2-fold higher: 160 nM for the first, 38 nM for the second.

Going from `COCCNc1ccc2ncc(Cc3ccc4ncccc4c3)n2n1` [Example 89, (2-Methoxy-ethyl)-(3-quinolin-6-ylmethyl-imidazo[1,2-b]pyridazin-6-yl)-amine] to `CC(=O)NCCNc1ccc2ncc(Cc3ccc4ncccc4c3)n2n1` [Example 96, N-[2-(3-Quinolin-6-ylmethyl-imidazo[1,2-b]pyridazin-6-ylamino)-ethyl]-acetamide], the IC50 rises from 26 nM to 190 nM (7.3-fold).

Compared with `Cc1csc(Nc2ccc3ncc(Cc4ccc5ncccc5c4)n3n2)n1` [Example 93], `CCC(C)(C)Nc1ccc2ncc(Cc3ccc4ncccc4c3)n2n1` [Example 98, (1,1-Dimethyl-propyl)-(3-quinolin-6-ylmethyl-imidazo[1,2-b]pyridazin-6-yl)-amine] is 3.5-fold lower in IC50: 390 nM for the first, 110 nM for the second. The second is the more potent here.

Going from `c1cnc2ccc(Cc3cnc4ccc(NC5CCCCCCC5)nn34)cc2c1` [Example 97, Cyclooctyl-(3-quinolin-6-ylmethyl-imidazo[1,2-b]pyridazin-6-yl)-amine] to `CN(C)CCCNc1ccc2ncc(Cc3ccc4ncccc4c3)n2n1` [Example 101, N,N-Dimethyl-N′-(3-quinolin-6-ylmethyl-imidazo[1,2-b]pyridazin-6-yl)-propane-1,3-diamine], the IC50 falls from 610 nM to 130 nM (4.7-fold).
